Laboratory results taken from PubChem BioAssay (NCI).
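48-hour exposure; five concentrations; linearly interpolated endpoints. Definition used: TGI = concentration required for complete inhibition of growth.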

Experiments:
Test in all cases: NCI-60 cell line screen, 48 h
A498 renal = test system: A498 renal
ACHN renal = test system: ACHN renal
CAKI-1 renal = test system: CAKI-1 renal
HL-60(TB) leukemia = test system: HL-60(TB) leukemia
IGROV1 ovarian = test system: IGROV1 ovarian
LOX IMVI melanoma = test system: LOX IMVI melanoma
M14 melanoma = test system: M14 melanoma
MDA-MB-231 breast = test system: MDA-MB-231 breast
NCI-H23 lung = test system: NCI-H23 lung
NCI-H460 lung = test system: NCI-H460 lung
NCI/ADR-RES ovarian = test system: NCI/ADR-RES ovarian
RPMI-8226 leukemia = test system: RPMI-8226 leukemia
SF-295 CNS = test system: SF-295 CNS
SK-OV-3 ovarian = test system: SK-OV-3 ovarian
SNB-75 CNS = test system: SNB-75 CNS
U251 CNS = test system: U251 CNS
UO-31 renal = test system: UO-31 renal
MDA-N = test system: MDA-N

Row | SMILES | TGI (A498 renal) [µM] | TGI (ACHN renal) [µM] | TGI (CAKI-1 renal) [µM] | TGI (HL-60(TB) leukemia) [µM] | TGI (IGROV1 ovarian) [µM] | TGI (LOX IMVI melanoma) [µM] | TGI (M14 melanoma) [µM] | TGI (MDA-MB-231 breast) [µM] | TGI (NCI-H23 lung) [µM] | TGI (NCI-H460 lung) [µM] | TGI (NCI/ADR-RES ovarian) [µM] | TGI (RPMI-8226 leukemia) [µM] | TGI (SF-295 CNS) [µM] | TGI (SK-OV-3 ovarian) [µM] | TGI (SNB-75 CNS) [µM] | TGI (U251 CNS) [µM] | TGI (UO-31 renal) [µM] | TGI (MDA-N) [µM]
1 | CC1OC(=O)c2ccccc2NC1=O (stereo not given) | > 100 | > 100 | > 100 | > 100 | > 100 | > 100 | > 100 | > 100 | > 100 | > 100 | > 100 | > 100 | > 100 | > 100 | > 100 | > 100 | > 100 | 
2 | CN1CCN(c2ccc3[nH]c(C4=C(O)c5nc(CO)n(C)c5C(=O)C4=O)nc3n2)CC1 |  | > 100 | > 100 | > 100 | > 100 | > 100 | > 100 | > 100 | > 100 | > 100 | > 100 | > 100 | > 100 | > 100 | > 100 | > 100 | > 100 | 
3 | C=C1C(=O)OC2/C=C(\C)C(O)/C=C\C(C)(O)CC(OC(=O)/C(C)=C/C)C12 (stereo not given) | > 100 | 54.1 | > 66.7 | > 64 | > 100 | 36.6 | 32.7 |  | > 100 | > 100 |  | > 68.6 | > 100 | > 100 | > 100 | > 100 | > 100 | 
4 | CCOC(=O)C12CC1(C(=O)OCC)C1CCC2C1 (stereo not given) | > 100 | > 100 | > 100 | > 100 | > 100 | > 100 | > 100 |  | > 100 | > 100 |  | > 100 | > 100 | > 100 |  | > 100 | > 100 | 
5 | COc1cc(CC2c3cc(OC)c(OC)cc3CCN2C)c(Oc2cc3c(cc2OC)-c2c(OC)c(OC)c(OC)c4c2C(C3)N(C)CC4)cc1OC (stereo not given) | 28.8 | 30.9 | 32.1 | > 100 | 29.9 | 22.6 | 5.76 |  | 34.9 | 32.7 |  | > 45.7 | 28.8 | 35 | 25 | 26 | 22.1 | 
6 | O=C(NCc1ccccc1)c1cnc(Cl)cn1 | > 100 | 44.1 | 33 | > 100 | > 100 | > 100 | > 100 | > 100 | 87.4 | > 100 | 44.2 | > 100 | > 100 | > 100 | > 100 | > 100 | 36.3 | 
7 | CC(C)(C)OC(=O)N1CCC23CCCC2C(=O)CC=C13 (stereo not given) |  | > 100 | > 100 | > 100 | > 100 | > 100 | > 100 | > 100 | > 100 | > 100 | > 100 |  | > 100 | > 100 | > 100 | > 100 | > 100 | 
8 | Nc1ncc(Cc2nc3ccccc3s2)s1 |  | > 100 | > 100 | > 100 | > 100 | > 100 | > 100 | > 100 |  | > 100 | > 100 | > 100 | > 100 | > 100 | > 100 | > 100 | > 100 | 
9 | CC(=O)c1cn(-c2ccc(Cl)cc2)c(=O)c2c(N)n[nH]c12 | > 100 | > 100 | > 100 | > 100 | > 100 | > 100 |  | > 100 | > 100 | > 100 | > 100 | > 100 | > 100 | > 100 | > 100 | > 100 | > 100 | 
10 | COc1ccc2c(c1)CC[C@@H]1C2CC[C@]2(C)C(=O)NC(=O)CC12 (stereo not given in full) | > 100 | > 100 | > 100 | > 100 | > 100 | > 100 | > 100 |  | > 100 | > 100 |  | > 100 | > 100 | > 100 |  | > 100 | > 100 | 
11 | CSCCC(NC(c1ccccc1)c1ccccc1)[P+](=O)O (stereo not given) |  | > 100 | > 100 | > 100 | > 100 | > 100 | > 100 |  | > 100 | > 100 | > 100 | > 100 | > 100 | > 100 | > 100 | > 100 | > 100 | 
12 | COc1cc2c(c(OC)c1OC)C(=O)CC2N (stereo not given) | > 100 | > 100 | > 100 | > 100 | > 100 | > 100 | > 100 | > 100 | > 100 | > 100 | > 100 | > 100 | > 100 | > 100 | > 100 | > 100 | > 100 | 
13 | C/C(=N\Nc1ccc([N+](=O)[O-])cc1)C(=O)N(C)Nc1ccccc1 | > 100 | > 100 |  | > 100 | > 100 | > 100 | > 100 |  | > 100 | > 100 |  | > 100 | > 100 | > 100 | > 100 | > 100 | > 100 | 
14 | CCOC(=O)C(C)(C)Oc1ccc2c(-c3ccc(Cl)cc3)cc(=O)oc2c1 | > 100 | > 100 |  | > 100 | > 100 | > 100 | > 100 |  | > 100 | > 100 |  | > 100 | > 100 |  | > 100 | > 100 | > 100 | 
15 | CCN(CC)CCCNC(=O)Cc1ccccc1Nc1c(Cl)cccc1Cl |  | 20.8 |  | 27.5 | 36.5 | 25.6 | 7.88 |  | 32.2 |  |  | 29.1 | 32.7 | 29.1 | 21.8 | 25.7 | 23.8 | 
16 | O=c1c([Se]c2coc3ccccc3c2=O)coc2ccccc12 | 33.6 | 32.1 | 39.8 | > 100 | 22.3 | 29.5 | 28.2 |  | 29.6 | 14 |  | 56.3 | 13.7 | 29.8 | 29.1 | 19.8 | 26.3 | 
17 | CCOC(=O)CCC(NC(=O)OCc1ccccc1)C(=O)NC(CCC(=O)OCC)C(=O)NC(CCC(=O)OCC)C(=O)NC(CCC(=O)OCC)C(=O)NC(CCC(=O)OCC)C(=O)OCC (stereo not given) |  | > 100 | > 100 |  | > 100 | > 100 | > 100 |  | > 100 | > 100 | > 100 | > 100 | > 100 | > 100 | > 100 | > 100 | > 100 | > 100
18 | CC(C)[Si]1(C(C)C)OCC2OC(n3ccc(=O)[nH]c3=O)C(O)(CO)C2O[Si](C(C)C)(C(C)C)O1 (stereo not given) | 36.1 | 30.8 | 29.6 | > 100 | 23.9 | 30.7 | 34.8 | 26.7 | 12.5 |  | 30.1 | 26.2 | 28.5 | 30.2 |  | 30.1 | 22.2 | 
19 | COc1ccc(C)cc1NC(=S)N/N=C/c1ccc(SC)cc1 | > 100 | > 100 | > 100 | > 100 | > 100 | > 100 | 73.9 |  | > 100 |  | > 100 | 76.3 | > 100 | 91.4 | > 100 |  | > 100 | > 100
20 | CCOC(=O)c1c(SCCO)n(-c2ccccc2)c(=S)n(-c2ccccc2)c1=O |  | > 100 | > 100 | > 100 | > 100 | > 100 | > 100 |  | > 100 | > 100 | > 100 | > 100 | > 100 | > 100 | > 100 | > 100 | > 100 | > 100
21 | Cc1ccc(N2C(=O)/C(=C3\Sc4c(nc(C)[nH]c4=O)N3c3ccccc3)SC2=S)cc1 | 88.2 | > 100 | > 100 | > 100 | > 100 | 70.7 | > 100 |  | 56.7 | > 100 |  | > 100 | 54.8 | 53.5 | 56.4 | 37.9 | 92.1 | 
22 | COc1ccc(C2S/C(=C\c3ccc(OC)cc3OC)C(=O)N2NC(=O)Cc2ccccc2)cc1 (stereo not given) | > 100 | > 100 | > 100 | > 100 | > 100 | > 100 | > 100 |  | > 100 | > 100 |  | > 100 | > 100 | > 100 | > 100 | > 100 | > 100 | 
23 | CC(=O)Nc1ccc(-c2nnc(SCC(=O)Nc3ccc(C)cc3)o2)cc1 |  | 70.3 | 24.9 | 64.4 | 28.6 | 31.8 | 29.8 |  | 29.6 | 42.7 |  | 74.7 | 35.5 | > 100 | 58.6 | 33.6 | > 100 | 
